Molecules are shown by their SMILES.

Assay [1] relates to Enterovirus A71. In words: inhibition concentration required against human enterovirus 71 (2086) genotype C was determined by plaque reduction assay. It counts as functional, organism-based. As to conditions: Enterovirus A. In general terms: Plaques are areas of infected cells; plaque reduction assays count them against a control.
For assay [2], the system named is Coxsackievirus. In words: inhibition concentration required against coxsackievirus B5 was determined by plaque reduction assay. It counts as functional, organism-based.
The test system of assay [3] is Coxsackievirus. In words: inhibition concentration required against coxsackievirus A24 was determined by plaque reduction assay. The format is functional, organism-based.
For assay [4], the system named is Coxsackievirus. In words: inhibition concentration required against coxsackievirus A16 was determined by plaque reduction assay. The format is functional, organism-based.
Assay [5] relates to Coxsackievirus. Kind of assay: inhibition concentration required against coxsackievirus B4 was determined by plaque reduction assay. The format is functional, organism-based.
The subject of assay [6] is Enterovirus A71. Kind of assay: inhibition concentration required against human enterovirus 71 (BrCr) genotype A was determined by plaque reduction assay. It counts as functional, organism-based.
The test system of assay [7] is Echovirus. In words: inhibition concentration required against echovirus 9 was determined by plaque reduction assay. The format is functional, organism-based.
The subject of the next assay is Rhabdomyosarcoma cell. Kind of assay: Concentration required for 50% cytotoxicity against human rhabdomyosarcoma cell lines. The format is functional.
The subject of assay [8] is Enterovirus A71. In words: inhibition concentration required against human enterovirus 71 (1743) genotype B was determined by plaque reduction assay. To be noted: Enterovirus A. The format is functional, organism-based.
Another assay has as its system Enterovirus D68. Kind of assay: inhibition concentration required against human enterovirus 68 was determined by plaque reduction assay. To be noted: Enterovirus D.
Assay [9] deals with Coxsackievirus. Kind of assay: inhibition concentration required against coxsackievirus B2 was determined by plaque reduction assay. The format is functional, organism-based.
Assay [10] relates to Echovirus. Kind of assay: inhibition concentration required against echovirus 29 was determined by plaque reduction assay. It counts as functional, organism-based.
Assay [11] has as its system Enterovirus A71. Kind of assay: inhibition concentration required against human enterovirus 71 (2231) genotype C was determined by plaque reduction assay. The format is functional, organism-based. To be noted: Enterovirus A.
For assay [12], the system named is Coxsackievirus. Kind of assay: inhibition concentration required against coxsackievirus A10 was determined by plaque reduction assay. It counts as functional, organism-based.
Assay [13] concerns Enterovirus A71. In words: inhibition concentration required against human enterovirus 71 strain 4643 was determined by plaque reduction assay. As to conditions: Enterovirus A. The format is functional, organism-based.
The test system of assay [14] is Coxsackievirus. Kind of assay: inhibition concentration required against coxsackievirus B1 was determined by plaque reduction assay. The format is functional, organism-based.
Assay [15] has as its system Coxsackievirus. Kind of assay: inhibition concentration required against coxsackievirus B3 was determined by plaque reduction assay. It counts as functional, organism-based.
For assay [16], the system named is Coxsackievirus. Kind of assay: inhibition concentration required against coxsackievirus A9 was determined by plaque reduction assay. The format is functional, organism-based.
In assay [17] the test system is Coxsackievirus. In words: inhibition concentration required against coxsackievirus B6 was determined by plaque reduction assay. It counts as functional, organism-based.

As usually defined, the IC50 is the midpoint of a concentration-inhibition curve. The low end stands for greater potency, the high end for weaker potency. Broadly, the CC50 is the concentration at which the toxic effect on the cells reaches its halfway point. Low readings indicate greater toxicity to the cells, high ones lower toxicity to the cells. With `O=C1N(CCCCCOc2ccc(-c3ccc(Cl)cc3)cc2)CCN1c1ccncc1`, the IC50 in the assay with Enterovirus A71 [1] was 70 nM; in the assay on Coxsackievirus [2] it was 4180 nM; in the assay with Coxsackievirus [3], 140 nM; in the assay on Coxsackievirus [4] it was over 25000 nM; in the assay on Coxsackievirus [5], 3140 nM; in the assay with Enterovirus A71 [6], 50 nM. Moreover, the half-maximal inhibitory concentration (IC50) with Echovirus [7] is 300 nM; in the assay on Enterovirus A71 [8], 90 nM; in the assay with Enterovirus D68, over 25000 nM; in the assay with Coxsackievirus [9], over 25000 nM; in the assay on Echovirus [10] it was 30 nM; in the assay on Enterovirus A71 [11] it was 80 nM. Also, the IC50 is 8610 nM in the assay with Coxsackievirus [12]; 30 nM in the assay with Enterovirus A71 [13]; over 25000 nM in the assay with Coxsackievirus [14]; over 25000 nM in the assay with Coxsackievirus [15]; 40 nM in the assay on Coxsackievirus [16]; over 25000 nM in the assay with Coxsackievirus [17]. Moreover, the CC50 in the assay on Rhabdomyosarcoma cell is over 12500 nM.

These data come from ChEMBL document CHEMBL1137889, “Synthesis and antienteroviral activity of a series of novel, oxime ether-containing pyridyl imidazolidinones” (Bioorg Med Chem Lett, 2004).
